Series [1] concerns CMV-Lac Z reporter in neonatal rat cardiomyocytes. In words: CMV-Lac Z reporter (specificity control). The series is classed as cell-based. The note with it: inhibitor alone or together with phenylephrine. How it is done:
(§1) FIGS. 3A-D. HDAC inhibitors block the activation of ANF reporter by phenylphrine without cytotoxicity. Neonatal rat cardiomyocytes were co-transfected with a total of 1 μg of the mouse 3 kb ANF promoter fragment and CMV-Lac Z plasmids. (FIG. 3A) The ANF promoter is minimally active in unstimulated cardiomyocytes. […] (FIG. 3B) Lac Z expression by the constitutive promoter CMV. Treatment with HDAC inhibitors augmented CMV activity with and without phenylephrine co-treatment. (FIGS. 3C and 3D) The graphs show the measurements of adenylate kinase activity remains constant in the medium after […] of culturing cardiomyocytes in the absence or presence of hypertrophic stimulants FBS, PE or ET-1.
(§2) Transcription assay. Twenty-four hours after plating, cells were transfected with total of 1 μg/ml for 5 hrs using Lipofectamine Plus reagent (Invitrogen, Carlsbad, Calif.). Transfected cells were incubated 24 hrs then treated for an additional 24 hrs. Cells were lysed and their lysates assayed with the Luciferase Assay System (Promega, Madison, Wis.) for luminescence using Lucysoft 2 luminometer (Rosys Anthos, New Castle, Del.).

The test system of a further series is cardiomyocytes. Kind of series: Protein synthesis (tritiated leucine, S6 ribosomal protein). The class given is cell-based, rat. How it is done:
FIG. 6. The effects of TSA treatment on the reorganization of the sarcomeres and protein synthesis. […] The graphs on the right show the content of S6 ribosome protein in cardiomyocytes after 24 hours co-treatment with PE and increasing concentrations of TSA or with serum and increasing concentrations of TSA.
Protein synthesis. Cardiomyocytes were incubated with (1.0 μCi/ml; 172 Ci/mmol sp. activity) tritiated-leucine (ICN Biochemicals, Inc., Irvine, Calif.) in treated RPMI media (Invitrogen, Carlsbad, Calif.). After 6 hrs incubation, the cells were washed twice with 1× PBS, then incubated in 10% TCA on ice for 30 min. Afterwards, the cells were washed twice with 5% TCA, once with water, and then lysed in […]. Lysates were measured in one-sixth volume of scintillation fluid by a scintillation counter (Beckman, Fullerton, Calif.).
S6 Ribosomal protocol. After blocking, cells were incubated in 1% BSA/1× PBS containing 50 μg/ml anti-S6 protein (Cell Signaling, […]) for 1 hr. After washing, the cells were incubated with IgG-HRP (Jackson Labs, […]) at a 1:400 dilution. The cells were then washed twice in 1% BSA/1× PBS, in 1× PBS, then blotted dry. Luminol (Pierce, Rockford, Ill.) was added and the chemiluminescence was detected in a Fusion reader (Perkin-Elmer/Packard).

Series [2] relates to ANF in neonatal cardiomyocytes. Kind of series: ANF chemiluminescence detection, dose response. The series is classed as cell-based, rat. As to the method:
FIGS. 4A-C. […] As in the transfection experiments, phenylephrine (100 µM) induces ANF expression over three-fold. […] (FIGS. 4B and 4C) The graphs show a reduction of the chemiluminent detection of ANF in the culture medium with increasing concentrations of the HDAC inhibitors TSA (FIG. 4B) and sodium butyrate (FIG. 4C) when co-cultured with the hypertrophic stimulants FBS, PE or ET-1.
Chemilumenescence. Neonatal cardiomyocytes were seeded onto 96-well plates and treated for 72 hrs. The cells were washed twice in 1×PBS, fixed in 4% paraformaldehyde/1×PBS, and permeabilized with 0.1% Triton-X100. After blocking, the cells were incubated 1 hr. with 10 μg/ml monoclonal anti-ANF antibody (Biodesign). The wells were washed twice with 1% BSA/1× PBS and then incubated for 1 hr. with goat anti-mouse IgG-Fc-HRP (Jackson Labs, […]) at 1:1000 in 1× PBS/1% BSA. Cells were washed twice with 1% BSA/1×PBS, twice with 1× PBS, then blotted dry. Luminol (Pierce, Rockford, Ill.) was added and the chemiluminescence was detected in a Fusion Plate Reader (Perkin Elmer/Packard).

The subject of series [3] is ANF promoter in neonatal rat cardiomyocytes. In words: ANF promoter transcription (luciferase) assay. As to conditions: for activation of ANF promoter by phenylephrine: phenylephrine 100 μM, TSA 85 nM, NaBut 5 mM, HC-toxin 5 ng/ml; for ANF promoter activity, inhibitor alone: unstimulated cardiomyocytes. The class given is cell-based. As to the method: as §1
Cardiomyocyte isolation. Hearts were harvested from 15-day timed-pregnant female Sprague-Dawley rats (Harlan, Houston, Tex.). After mincing in phosphate-buffered saline, cardiomyocytes were isolated from successive digestion fractions of 0.1% (w/v) Pancreatin (Sigma, St. Louis, Mo.) solution. Fractions were collected; resuspended in plating medium, pooled; and then plated for 2 hours to separate fibroblasts from cardiomyocyte population. Suspended cells were recollected and plated in 6-well dishes at 1×10^6 cells/well for transfection and immunofluorescence experiments, and 2×10^6 cells in 10 cm dishes for RNA analysis.
as §2

Series [4] concerns ANF, αSK-actin, αMyHC, βMyHC RNA in cardiomyocytes. Kind of series: RNA dot blot of fetal gene program. The class given is cell-based, rat. The note with it: phenylephrine 100 μM, TSA 85 nM, sodium butyrate 5 mM, HC-toxin 5 ng/ml. As to the method:
FIGS. 5A-B. Treatment of cardiomyocytes with HDAC inhibitors blocks the fetal gene program associated with cardiomyocyte hypertrophy. […] The graphs represent three or more independent experiments.
Dot Blot analysis. Total RNA was isolated from cardiomyocytes that were either untreated, treated with phenylephrine, treated with TSA, or co-treated with phenylephrine and TSA. One microgram of RNA was blotted onto Nitrocellulose (Bio-Rad, Hercules, Calif.) and hybridized at 50° C. for 14 hrs with end-labeled oligos. (ANF, 5′-[…]-3, SEQ ID NO 1; αSK actin5′-[…]-3′, SEQ ID NO2; αMyHC,5′[…]-3′, SEQ ID NO 3; βMyHC5′-[…]-3′, SEQ ID NO 4; GAPDH5′-[…]-3′, SEQ ID NO 5). The blots were washed twice in 2×SSC/0.5% SDS solution and exposed to film (Kodak, Rochester, N.Y.) or phosphoimager (Amersham Bioscience, Sunnyvale, Calif.). The intensity of the hybridization of the probes was measured using ImageQuant® (Amersham Bioscience, Sunnyvale, Calif.).

In a further series the test system is cultured cardiomyocytes. Kind of series: Adenylate kinase release cytotoxicity assay. As to conditions: increasing doses: TSA up to 100 nM, sodium butyrate up to 25 nM. The series is classed as cell-based. As to the method: as §1
Inventors then examined whether increasing doses of TSA and sodium butyrate were cytotoxic to cultured cardiomyocytes. To determine cell mortality, the release of adenylate kinase from cardiomyocytes into the culture medium was assayed. This assay is a known measurement for the integrity of the cell membrane: membranes become permeable in dying cells causing the cells release adenylate kinase.

Another series relates to transformed cells. The note with it: Marks et al. (2000); cited from earlier work.
A further series has as its system HDAC. As to conditions: Marks et al. (2000); cited from earlier work.

Entries after “also recorded” stand apart in the source; their conditions may differ.

As to `CCCC(=O)[O-].[Na+]` [sodium butyrate], the “transcriptional activity of CMV-Lac Z reporter” value in series [1] is “increased the transcriptional activity of the CMV-Lac Z reporter”. The “phenylephrine-stimulated protein synthesis, 6 hours” value in the series on cardiomyocytes (6 hours co-culture with phenylephrine) is given as “had little effect on the stimulation of protein synthesis”. Further, the “protein synthesis induced by PE or serum, 24 hrs” value in the series with cardiomyocytes (24 hrs co-treatment) is reported as “antagonized the protein synthesis normally induced by PE or serum in a dose-dependent manner”. For the same compound, the “minimal concentration that inhibited the hypertrophic response (ANF) of each growth stimulant” value in series [2] (FBS, PE, ET-1) is recorded as 5 mM. In addition, the “induction of ANF expression by FBS, PE and ET-1” value in series [2] (increasing concentrations) is on record as “countered the induction of ANF expression”. Further, in series [2] (very low doses (0.2 nM printed for sodium butyrate)), the “ANF expression at very low doses” value is given as “near two-fold increase”. Further, the “activation of ANF promoter by phenylephrine” value in series [3] was “did block the promoter's activation by phenylephrine treatment completely”; in series [3] (listed as NaBut) it was “prevented the activation of the ANF promoter”. The “ANF promoter activity, inhibitor alone” value in series [3] was “did not activate the ANF promoter”. Moreover, the entries for the “phenylephrine-induced endogenous ANF RNA expression” value in series [4] and in series [4] (listed as NaBut) were “blocks the accumulation of ANF message” and “prevented the phenylephrine-induced ANF response”, respectively. Moreover, the “adenylate kinase in the culture medium (cell death)” value with cultured cardiomyocytes is listed as “did little to increase adenylate kinase”.

Take `O=C(CCCCCCC(=O)Nc1ccccc1)NO` [SAHA, suberoylanilide hydroxamic acid]: the “effect on transformed cells” value with transformed cells was “induce growth arrest, differentiation, or apoptotic cell death of transformed cells”.

`C[C@@H]1NC(=O)[C@H]2CCCN2C(=O)[C@H](CCCCCC(=O)[C@@H]2CO2)NC(=O)[C@@H](C)NC1=O` [HC-toxin]: in series [1], the “transcriptional activity of CMV-Lac Z reporter” value is “increased the transcriptional activity of the CMV-Lac Z reporter”. Moreover, in series [3], the “activation of ANF promoter by phenylephrine” value is on record as “did block the promoter's activation by phenylephrine treatment completely; also recorded: prevented the activation of the ANF promoter” and the “ANF promoter activity, inhibitor alone” value is given as “did not activate the ANF promoter”. For the same compound, the “phenylephrine-induced endogenous ANF RNA expression” value in series [4] is recorded as “prevented the phenylephrine-induced ANF response; also recorded: blocks the accumulation of ANF message”.

In the case of `O=C(CCCCCCC(=O)Nc1cccnc1)NO` [pyroxamide, suberoyl-3-aminopyridineamide hydroxyamic acid], the “effect on transformed cells” value with transformed cells was “induce growth arrest, differentiation, or apoptotic cell death of transformed cells”. The “inhibition of HDAC” value in the series on HDAC was “potent inhibitors of HDAC in vitro and in vivo”.

Values taken from US6706686B2, “Inhibition of histone deacetylase as a treatment for cardiac hypertrophy” (The Regents of the University of Colorado, priority 2001, dated 2004).
